Assay results as given in US9920295B2, “Bioreactor for isolation of rare cells and methods of use” (The Trustees of the University of Pennsylvania, priority 2012, dated 2018).

Key:
NMM-IIA = biological target: T1, NMM-IIA (Homo sapiens, UniProt P35579); experiment: NMM-IIA phosphorylation in THP-1 cells (IP, MS, flow cytometry); format: cell-based
T1 construct: endogenous in cells; host or cells: THP-1 cells
Experimental: In general, cells were washed with ice-cold PBS and lysed on ice with lysis buffer (150 mM sodium chloride, 1% Nonidet P-40, 1% protease inhibitor mixture, 1 mM activated sodium orthovanadate, 50 mM Tris at pH 8.0) for 30 min. For immunoprecipitation (IP), 30 mM of pervanadate solution was prepared by mixing sodium orthovanadate with H2O2 for 15 min at room temperature. At least 1×10^7 THP-1 cells were treated with pervanadate with or without blebbistatin at 37° C. for 15 min. Cells were then washed, lysed, and whole-cleared lysate was mixed with anti-NMM-IIA antibody at 4° C. overnight, followed by incubation with Protein G (Invitrogen) for 1 h. For Western blot, whole lysate or IP proteins were separated on 4% to 12% SDS/PAGE gels (NuPAGE 4-12% Bis-Tris, Invitrogen). The proteins were then transferred to a polyvinylidene fluoride (PVDF) membrane with an iBlot Gel Transfer Device (Invitrogen), followed by blocking with 5% nonfat dry milk solution for 1 h. Incubation with primary antibodies was done at 4° C. overnight with 1:1,000β-actin, 1:250 pTyr, and 1:1,000 NMM-IIA antibodies. After washing, the membrane was incubated with 1:2,500 anti-rabbit and 1:1,000 anti-mouse HRP-conjugated IgG antibodies at room temperature for 1 h. […]

MKs = experiment: Proplatelet extension quantification; format: cell-based, human
Experimental: Three-dimensional collagen gels embedded with cells were prepared as previously published (Rhee et al., 2007, Proc Natl Acad Sci USA, 104:5425-5430). BM-derived cells were added to the collagen solution prepared by neutralizing 2.0 mg/mL collagen-I (BD Biosciences) with HSC expansion media adjusted to appropriate the pH, so that cells could be embedded to the polymerized matrices (1×10^5 cells/mL). Next, 200 μL of this collagen mixture was placed in a well of 24-well plate and incubated at 37° C. 5% CO2 overnight before being formaldehyde-fixed and processed for microscopic analysis. Washing steps were done gently using pipette to minimize disturbance of gels. After completion of staining, matrices were released from the plate by gentle shaking and transferred to glass slides in mounting medium with either a spatula or gentle pipetting.
Cells on coverslips were fixed with 4% paraformaldehyde, followed by permeabilization with 0.5% Triton X-100 in PBS for 15 min and blocking with 1% BSA in PBS for 30 min. Samples were then stained with primary antibodies (1:100 for all antibodies used) overnight at 4° C. After washing, staining with appropriate Alexa-conjugated secondary antibodies (1:400) was performed for 45 min at room temperature. Cells were washed three times with PBS and mounted in ProLong Gold antifade medium (Invitrogen). Samples were then analyzed by fluorescence microscopy. For quantitative analysis, pictures from each experiment were taken under a defined set of exposure times on the same day with 40× objectives. Intensity of labeled NMM-II proteins for each cell was analyzed by ImageJ by subtracting a background, defining a threshold of cell boundary, followed by calculation of mean intensity. At least 10 images from each experiment were analyzed from three independent experiments. For proplatelet quantification, the process length from each cell was measured by manual tracing with ImageJ. Only processes above detection limit (≥1 μm in length from cell body) were considered for statistical analysis.

CD34+-derived cells [1] = experiment: Apoptosis by cleaved caspase-3 intracellular flow cytometry and Annexin-V; format: cell-based, human; settings: cleaved caspase-3 and Annexin-V+
Experimental: Cells were fixed with 4% paraformaldehyde in PBS for 10 min, washed with PBS and resuspended in 0.1% saponin in HBSS (staining medium). The samples were then stained with antibodies against cytoplasmic antigens, including NMM-IIA (Sigma), NMM-IIB, phospho-NMM-IIA and caspase-3 (all from Cell Signaling Technology) for 30 min at room temperature. In some cases, cells were concurrently stained with PE anti-CD34 or anti-human CD38 for subpopulation analysis. Cells were then washed and stained with anti-rabbit or mouse secondary antibodies conjugated with Alexa 647 (Invitrogen) for 30 min, followed by analysis on FACSCalibur.

CD34+-derived cells [2] = experiment: DNA microarray transcriptional profiling; format: cell-based, human
Experimental: Total RNA was extracted from cells using trizol and isolated by RNeasy (Qiagen) according to manufacturer's protocol. Total RNA was amplified and converted to cDNA using WT-Ovation Pico kit (NuGen) and converted to ST-cDNA, fragmented and biotinfunctionalized using WT-Ovation Exon Mudule (NuGen). Hybridization cocktails were prepared at 45.4, 15.1 and 7.6 ng/μl ST-cDNA and mixed with Eukaryotic Hybridization Controls (GeneChip) at proportional concentrations. Each sample was interrogated by sequential hybridization, rinse and scan cycles on a single Human Gene 1.0 ST DNA microarray (Affymetrix), from low to high concentration, and followed by two rinse-scan cycles in which no sample was added. In each experiment the scanned intensities that were obtained from all samples, five scans per array, were mutually RMA-summarized to transcription clusters gene levels. Log-base-2 fold changes were calculated for each scan separately relative to the mean Bleb-treated and non-treated CD34^+ and CD34^− intensities, gene by gene, and the average and standard deviation values (SD) were calculated across scans. Heat maps of selected genes summarize data from technical and biological replica. Average gene-expression fold changes±STD of HSC, MPP and CPP samples are shown in white. Log-base-2 fold changes of Bleb-treated and non-treated CD34^+ and CD34^− were averaged from two biologically independent experiments and are shown±SD. The particular fold-changes are color coded on a logarithmic scale that is defined per each heat map. Color-coded gene symbols represent the absolute gene expression levels of the biologically-replicated averages of CD34^+ non-treated intensities. Gene expression levels are coded <=5 (green) to >=10 (red) on a log-base-2 scale. Samples and genes were clustered by Pearson Correlation (MeV). Dendograms represent the correlative proximity of log-base-2 gene expression fold changes. Mean gene expression levels were calculated by averaging across five array scans. Log-base-2 gene expression fold changes were calculated relative to the mean Bleb-treated and non-treated CD34^+ and CD34^− intensities, gene by gene.

T1 sequence (P35579 2-1960 limits assumed): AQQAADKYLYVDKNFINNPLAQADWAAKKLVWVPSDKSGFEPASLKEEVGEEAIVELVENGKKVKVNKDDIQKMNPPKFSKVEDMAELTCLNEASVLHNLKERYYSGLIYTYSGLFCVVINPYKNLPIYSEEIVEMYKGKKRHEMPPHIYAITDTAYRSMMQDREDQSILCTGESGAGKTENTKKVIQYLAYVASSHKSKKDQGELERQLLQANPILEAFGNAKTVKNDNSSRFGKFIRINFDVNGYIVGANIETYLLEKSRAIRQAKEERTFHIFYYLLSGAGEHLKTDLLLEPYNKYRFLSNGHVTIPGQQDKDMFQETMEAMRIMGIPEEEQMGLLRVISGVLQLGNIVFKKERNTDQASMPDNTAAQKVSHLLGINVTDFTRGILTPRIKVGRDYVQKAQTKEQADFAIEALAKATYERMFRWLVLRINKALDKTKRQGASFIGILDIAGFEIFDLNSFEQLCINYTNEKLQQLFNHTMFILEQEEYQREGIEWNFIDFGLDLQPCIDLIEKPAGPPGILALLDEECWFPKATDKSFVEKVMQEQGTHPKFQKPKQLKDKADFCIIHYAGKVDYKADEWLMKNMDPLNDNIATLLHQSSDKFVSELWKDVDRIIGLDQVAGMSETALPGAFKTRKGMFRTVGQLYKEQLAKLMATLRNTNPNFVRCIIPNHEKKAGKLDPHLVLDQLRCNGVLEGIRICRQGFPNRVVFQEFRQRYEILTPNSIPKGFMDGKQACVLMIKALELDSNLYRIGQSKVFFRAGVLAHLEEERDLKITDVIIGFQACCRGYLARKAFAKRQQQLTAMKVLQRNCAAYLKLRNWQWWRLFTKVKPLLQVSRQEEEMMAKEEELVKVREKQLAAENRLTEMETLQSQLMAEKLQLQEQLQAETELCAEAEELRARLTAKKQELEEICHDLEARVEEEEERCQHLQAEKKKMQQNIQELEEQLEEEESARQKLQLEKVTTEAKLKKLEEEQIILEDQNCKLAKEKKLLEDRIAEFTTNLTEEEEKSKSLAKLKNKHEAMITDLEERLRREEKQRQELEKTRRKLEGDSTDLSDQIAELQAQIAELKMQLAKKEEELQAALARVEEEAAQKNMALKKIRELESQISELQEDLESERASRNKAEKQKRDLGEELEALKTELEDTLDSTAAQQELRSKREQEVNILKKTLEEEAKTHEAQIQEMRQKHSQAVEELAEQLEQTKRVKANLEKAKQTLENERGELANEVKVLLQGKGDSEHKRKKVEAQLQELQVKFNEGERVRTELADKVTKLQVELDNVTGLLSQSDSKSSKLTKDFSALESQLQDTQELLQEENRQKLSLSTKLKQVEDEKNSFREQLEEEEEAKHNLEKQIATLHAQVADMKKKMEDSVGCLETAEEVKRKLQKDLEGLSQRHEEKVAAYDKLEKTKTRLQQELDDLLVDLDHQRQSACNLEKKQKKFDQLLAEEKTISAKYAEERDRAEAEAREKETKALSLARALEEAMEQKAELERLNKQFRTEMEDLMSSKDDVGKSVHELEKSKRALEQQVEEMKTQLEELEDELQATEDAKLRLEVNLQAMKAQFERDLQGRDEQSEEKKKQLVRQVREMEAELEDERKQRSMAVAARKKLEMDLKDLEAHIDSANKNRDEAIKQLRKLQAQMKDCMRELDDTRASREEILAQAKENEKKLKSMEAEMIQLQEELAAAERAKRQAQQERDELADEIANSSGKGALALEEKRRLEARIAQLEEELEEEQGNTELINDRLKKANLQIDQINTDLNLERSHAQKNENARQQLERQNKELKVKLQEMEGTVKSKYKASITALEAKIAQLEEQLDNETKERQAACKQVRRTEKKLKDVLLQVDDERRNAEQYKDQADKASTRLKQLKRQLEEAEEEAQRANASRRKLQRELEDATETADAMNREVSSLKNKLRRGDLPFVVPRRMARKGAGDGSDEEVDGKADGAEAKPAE
T1 sequence (P60660 2-151 partner limits assumed): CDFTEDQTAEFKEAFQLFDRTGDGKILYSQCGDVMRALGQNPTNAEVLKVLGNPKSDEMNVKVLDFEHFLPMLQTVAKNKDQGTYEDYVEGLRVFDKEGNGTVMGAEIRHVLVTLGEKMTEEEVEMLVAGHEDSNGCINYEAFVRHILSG
T1 sequence (O14950 2-172 partner limits assumed): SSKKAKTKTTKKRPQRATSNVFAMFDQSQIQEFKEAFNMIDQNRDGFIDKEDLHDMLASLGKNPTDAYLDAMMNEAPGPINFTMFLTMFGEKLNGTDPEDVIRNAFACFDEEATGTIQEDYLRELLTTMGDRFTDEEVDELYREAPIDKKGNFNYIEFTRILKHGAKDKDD

Compound: Cc1ccc2c(c1)C(=O)C1(O)CCN(c3ccccc3)C1=N2 (racemic) [blebbistatin, (±)-blebbistatin]
- pTyr levels (NMM-IIA; THP-1, basal and phosphatase-inhibited conditions): decreases pTyr levels
- phospho-S1943 of NMM-IIA (NMM-IIA; THP-1, detergent-soluble monomer): increases phospho-S1943
- increase in mean length of proplatelet extensions (MKs; cells grown on plastic): approximately threefold
- effect on proplatelet extensions (MKs; cells in 3D collagen gels or on stiff, osteoid-like matrices): no effect
- average proplatelet extension velocity (MKs; live imaging): ~1 μm/min
- increase in apoptosis (CD34+-derived cells [1]): about 2 fold
- NMM-IIA mRNA lower in drug-treated CD34+ cells (CD34+-derived cells [2]): ~30%
- reduction of cyclin D1 and D3 (CCND1 and 3) expression (CD34+-derived cells [2]): 2 fold
- SCF receptor (KIT) expression vs untreated CD34+ cells (CD34+-derived cells [2]; treated CD34+ cells): 1.8 fold
- upregulation of CD133 (PROM1) and CD34 above pooled average (CD34+-derived cells [2]; treated CD34+ cells in culture): more than 2 fold
